Counter-ions that a name gives are not always drawn.
The compounds below were run against T1, human vasopressin V1b receptor (Homo sapiens, UniProt P47901) (assay: Vasopressin V1b receptor binding assay). Conditions: membranes from CHO-K1 cells with stably expressed human V1b receptors, displacement of 1.5 nM 3H-AVP.
T1 construct: expressed in transfected cells; host or cells: CHO-K1 (cell line hV1b-3H2_CHO), membrane preparation
T1 sequence (P47901 1-424): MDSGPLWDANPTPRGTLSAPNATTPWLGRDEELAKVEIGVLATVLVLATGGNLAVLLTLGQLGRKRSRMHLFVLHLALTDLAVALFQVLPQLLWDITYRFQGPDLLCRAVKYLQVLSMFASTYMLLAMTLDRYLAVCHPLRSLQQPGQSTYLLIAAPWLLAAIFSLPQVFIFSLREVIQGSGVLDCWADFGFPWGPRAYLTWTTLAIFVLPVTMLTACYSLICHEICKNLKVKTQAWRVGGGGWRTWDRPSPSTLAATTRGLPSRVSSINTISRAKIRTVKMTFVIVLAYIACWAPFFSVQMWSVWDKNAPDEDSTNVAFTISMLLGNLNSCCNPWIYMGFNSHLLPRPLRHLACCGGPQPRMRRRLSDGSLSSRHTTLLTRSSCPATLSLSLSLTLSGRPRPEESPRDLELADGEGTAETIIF
Method: Vasopressin V1b Receptor Binding Assay:
The test substances were dissolved in a concentration of 10^−2 M in DMSO (dimethyl sulfoxide) and further diluted to 5×10^−4 M to 5×10^−9 M in DMSO. This series of DMSO predilutions was diluted 1:10 with assay buffer. The substance concentration was again diluted 1:5 in the assay mixture (2% DMSO in the mixture).
The membrane pellet was again homogenized and centrifuged as described and then taken up in 50 mM Tris-HCl, pH 7.4, homogenized and stored in aliquots frozen in liquid nitrogen at −190° C.
The incubation buffer was: 50 mM Tris, 10 mM MgCl2, 0.1% BSA, pH 7.4.
The nonspecific binding was determined with 1 uM AVP (Bachem # H1780). All determinations were carried out as triplicate determinations. After incubation (60 minutes at room temperature), the free radioligand was removed by vacuum filtration (Skatron cell harvester 7000) through Whatman GF/B glass fiber filter mats, and the filters were transferred into scintillation vials. The liquid scintillation measurement took place in a Tricarb model 2000 or 2200CA instrument (Packard). Conversion of the measured cpm into dpm was carried out with the aid of a standard quench series.
The binding parameters were calculated by nonlinear regression in SAS.
In the case of `COc1cc(CN2CCN(C)CC2)ccc1C1(N2CCC[C@H]2C(=O)N(C)C)C(=O)N(S(=O)(=O)c2ccc(F)cc2)c2ccc(Cl)cc21` (stereo partly drawn) [Example 74, (S)-1-{5-Chloro-1-(4-fluorobenzenesulfonyl)-3-[2-methoxy-4-(4-methylpiperazin-1-yl-methyl)phenyl]-2-oxo-2,3-dihydro-1H-indol-3-yl}pyrrolidine-2-dimethylcarboxamide, trifluoroacetic acid salt], the Ki is reported as < 1 nM.
In the case of `COc1cc(CN2CCOCC2)ccc1C1(N2CCC[C@H]2C(=O)N(C)C)C(=O)N(S(=O)(=O)c2ccc(F)cc2)c2ccc(Cl)cc21` (stereo partly drawn) [Example 77, (S)-1-[5-Chloro-1-(4-fluorobenzenesulfonyl)-3-(2-methoxy-4-morpholin-4-ylmethyl-phenyl)-2-oxo-2,3-dihydro-1H-indol-3-yl]pyrrolidine-2-dimethylcarboxamide, trifluoroacetic acid salt], the Ki is reported as 10 to 100 nM.
`COc1cc(CN2CCNCC2)ccc1C1(N2CCC[C@H]2C(=O)N(C)C)C(=O)N(S(=O)(=O)c2ccc(F)cc2)c2ccc(Cl)cc21` (stereo partly drawn) [Example 78, (S)-1-[5-Chloro-1-(4-fluorobenzenesulfonyl)-3-(2-methoxy-4-piperazin-1-ylmethyl-phenyl)-2-oxo-2,3-dihydro-1H-indol-3-yl]pyrrolidine-2-dimethylcarboxamide, trifluoroacetic acid salt] was tested, and the Ki was < 1 nM.
With `COc1ccc(S(=O)(=O)N2C(=O)C(c3ccc(CN4CCNCC4)cc3OC)(N3CCC[C@H]3C(=O)N(C)C)c3cc(Cl)ccc32)cc1` (stereo partly drawn) [Example 79, (S)-1-[5-Chloro-1-(4-methoxybenzenesulfonyl)-3-(2-methoxy-4-piperazin-1-yl-methylphenyl)-2-oxo-2,3-dihydro-1H-indol-3-yl]pyrrolidine-2-dimethylcarboxamide, trifluoroacetic acid salt] the Ki was < 1 nM.
With `COc1cc(CN2CCN(C)CC2)ccc1C1(N2CCC[C@H]2C(=O)N(C)C)C(=O)N(S(=O)(=O)c2ccc(C#N)cc2)c2ccc(Cl)cc21` (stereo partly drawn) [Example 80, (S)-1-{5-Chloro-1-(4-cyanobenzenesulfonyl)-3-[2-methoxy-4-(4-methylpiperazin-1-ylmethyl)phenyl]-2-oxo-2,3-dihydro-1H-indol-3-yl}pyrrolidine-2-carboxylic acid dimethylamide, trifluoroacetic acid salt] the Ki was < 1 nM.
`COc1cc(CN2CCOCC2)ccc1C1(N2CCC[C@H]2C(=O)N(C)C)C(=O)N(S(=O)(=O)c2ccc(C#N)cc2)c2ccc(Cl)cc21` (stereo partly drawn) [Example 81, (S)-1-[5-Chloro-1-(4-cyanobenzenesulfonyl)-3-(2-methoxy-4-morpholin-4-ylmethyl-phenyl)-2-oxo-2,3-dihydro-1H-indol-3-yl]pyrrolidine-2-dimethylcarboxamide, trifluoroacetic acid salt] gave a Ki of 1 to 10 nM.
For `COc1cc(CN2CCNCC2)ccc1C1(N2CCC[C@H]2C(=O)N(C)C)C(=O)N(S(=O)(=O)c2ccc(C#N)cc2)c2ccc(Cl)cc21` (stereo partly drawn) [Example 82, (S)-1-[5-Chloro-1-(4-cyanobenzenesulfonyl)-3-(2-methoxy-4-piperazin-1-ylmethyl-phenyl)-2-oxo-2,3-dihydro-1H-indol-3-yl]pyrrolidine-2-dimethylcarboxamide, trifluoroacetic acid salt], the Ki was < 1 nM.
For `COc1ccc(S(=O)(=O)N2C(=O)C(c3ccc(CN4CCCCC4)cc3OC)(N3CCC[C@H]3C(=O)N(C)C)c3cc(Cl)ccc32)cc1` (stereo partly drawn) [Example 83, (S)-1-[5-Chloro-1-(4-methoxybenzenesulfonyl)-3-(2-methoxy-4-piperidin-1-ylmethyl-phenyl)-2-oxo-2,3-dihydro-1H-indol-3-yl]pyrrolidine-2-dimethylcarboxamide, trifluoroacetic acid salt], the Ki was < 1 nM.
`CCN(C)Cc1ccc(C2(N3CCC[C@H]3C(=O)N(C)C)C(=O)N(S(=O)(=O)c3ccc(OC)cc3)c3ccc(Cl)cc32)c(OC)c1` (stereo partly drawn) [Example 84, (S)-1-[5-Chloro-3-{4-[(ethylmethylamino)methyl]-2-methoxyphenyl}-1-(4-methoxy-benzenesulfonyl)-2-oxo-2,3-dihydro-1H-indol-3-yl]pyrrolidine-2-dimethylcarboxamide, trifluoroacetic acid salt] was tested, and the Ki was < 1 nM.
For `CCCNCc1ccc(C2(N3CCC[C@H]3C(=O)N(C)C)C(=O)N(S(=O)(=O)c3ccc(OC)cc3)c3ccc(Cl)cc32)c(OC)c1` (stereo partly drawn) [Example 85, (S)-1-[5-Chloro-1-(4-methoxybenzenesulfonyl)-3-(2-methoxy-4-propylaminomethyl-phenyl)-2-oxo-2,3-dihydro-1H-indol-3-yl]pyrrolidine-2-dimethylcarboxamide, trifluoroacetic acid salt], the Ki was < 1 nM.
`CCN(CC)Cc1ccc(C2(N3CCC[C@H]3C(=O)N(C)C)C(=O)N(S(=O)(=O)c3ccc(OC)cc3)c3ccc(Cl)cc32)c(OC)c1` (stereo partly drawn) [Example 86, (S)-1-[5-Chloro-3-(4-diethylaminomethyl-2-methoxyphenyl)-1-(4-methoxybenzene-sulfonyl)-2-oxo-2,3-dihydro-1H-indol-3-yl]pyrrolidine-2-dimethylcarboxamide, trifluoroacetic acid salt] was tested, and the Ki was < 1 nM.
With `COc1ccc(S(=O)(=O)N2C(=O)C(c3ccc(CN4CCC4)cc3OC)(N3CCC[C@H]3C(=O)N(C)C)c3cc(Cl)ccc32)cc1` (stereo partly drawn) [Example 87, (S)-1-[3-(4-Azetidin-1-ylmethyl-2-methoxyphenyl)-5-chloro-1-(4-methoxybenzene-sulfonyl)-2-oxo-2,3-dihydro-1H-indol-3-yl]pyrrolidine-2-dimethylcarboxamide, trifluoroacetic acid salt] the Ki was < 1 nM.
`COc1ccc(S(=O)(=O)N2C(=O)C(c3ccc(CN(C)C(C)C)cc3OC)(N3CCC[C@H]3C(=O)N(C)C)c3cc(Cl)ccc32)cc1` (stereo partly drawn) [Example 88, (S)-1-[5-Chloro-3-{4-[(isopropylmethylamino)methyl]-2-methoxyphenyl}-1-(4-methoxy-benzenesulfonyl)-2-oxo-2,3-dihydro-1H-indol-3-yl]pyrrolidine-2-dimethylcarboxamide, trifluoroacetic acid salt] was tested, and the Ki was < 1 nM.
For `COCCN(C)Cc1ccc(C2(N3CCC[C@H]3C(=O)N(C)C)C(=O)N(S(=O)(=O)c3ccc(OC)cc3)c3ccc(Cl)cc32)c(OC)c1` (stereo partly drawn) [Example 89, (S)-1-[5-Chloro-1-(4-methoxybenzenesulfonyl)-3-(2-methoxy-4-{[(2-methoxyethyl)-methylamino]methyl}phenyl)-2-oxo-2,3-dihydro-1H-indol-3-yl]pyrrolidine-2-dimethyl-carboxamide, trifluoroacetic acid salt], the Ki was < 1 nM.
`COc1ccc(S(=O)(=O)N2C(=O)C(c3ccc(CN(C)C)cc3OC)(N3CCC[C@H]3C(=O)N(C)C)c3ccccc32)cc1` (stereo partly drawn) [Example 90, (S)-1-[3-(4-Dimethylaminomethyl-2-methoxyphenyl)-1-(4-methoxybenzenesulfonyl)-2-oxo-2,3-dihydro-1H-indol-3-yl]pyrrolidine-2-dimethylcarboxamide, trifluoroacetic acid salt] was tested, and the Ki was 10 to 100 nM.
For `COc1ccc(S(=O)(=O)N2C(=O)C(c3ccc(CN4CCCC4)cc3OC)(N3CCC[C@H]3C(=O)N(C)C)c3ccccc32)cc1` (stereo partly drawn) [Example 91, (S)-1-[1-(4-Methoxybenzenesulfonyl)-3-(2-methoxy-4-pyrrolidin-1-ylmethylphenyl)-2-oxo-2,3-dihydro-1H-indol-3-yl]pyrrolidine-2-dimethylcarboxamide, trifluoroacetic acid salt], the Ki was 1 to 10 nM.
Work on `COc1ccc(S(=O)(=O)N2C(=O)C(c3ccc(CN4CCN(C)CC4)cc3OC)(N3CCC[C@H]3C(=O)N(C)C)c3ccccc32)cc1` (stereo partly drawn) [Example 92, (S)-1-{1-(4-Methoxybenzenesulfonyl)-3-[2-methoxy-4-(4-methylpiperazin-1-yl-methyl)phenyl]-2-oxo-2,3-dihydro-1H-indol-3-yl}-pyrrolidine-2-carboxylic acid dimethylamide, trifluoroacetic acid salt] yielded a Ki of 1 to 10 nM.
In the case of `CCNCc1ccc(C2(N3CCC[C@H]3C(=O)N(C)C)C(=O)N(S(=O)(=O)c3ccc(OC)cc3)c3ccc(Cl)cc32)c(OC)c1` (stereo partly drawn) [Example 93, (S)-1-[5-Chloro-3-(4-ethylaminomethyl-2-methoxyphenyl)-1-(4-methoxybenzene-sulfonyl)-2-oxo-2,3-dihydro-1H-indol-3-yl]pyrrolidine-2-dimethylcarboxamide, trifluoroacetic acid salt], the Ki is reported as < 1 nM.
In the case of `COc1ccc(S(=O)(=O)N2C(=O)C(c3ccc(CNC(C)C)cc3OC)(N3CCC[C@H]3C(=O)N(C)C)c3cc(Cl)ccc32)cc1` (stereo partly drawn) [Example 94, (S)-1-[5-Chloro-3-[4-(isopropylaminomethyl)-2-methoxyphenyl]-1-(4-methoxybenzene-sulfonyl)-2-oxo-2,3-dihydro-1H-indol-3-yl]pyrrolidine-2-dimethylcarboxamide, trifluoroacetic acid salt], the Ki is reported as < 1 nM.

Source: patent US8691815B2, “Substituted oxindole derivatives, drugs containing said derivatives and the use thereof” (AbbVie Deutschland GmbH & Co. KG, priority 2005, dated 2014)
